Experimental data published in the kinase profiling compilation of Christmann-Franck et al. (2016).

Key:
Assay in all cases: KINOMEscan competition binding
Settings in all cases: compound 10.0 µM
[1] = system: EGFR (human), P00533 [A750P; 747-749 del]
[2] = system: RET (human), P07949 [V804L]
[3] = system: KIT (human), P10721 [D816H]
[4] = system: FLT3 (human), P36888 [D835Y]
[5] = system: MET (human), P08581 [M1250T]
[6] = system: FGFR3 (human), P22607 [G697C]
[7] = system: LRRK2 (human), Q5S007 [G2019S]
[8] = system: KIT (human), P10721 [A829P]
[9] = system: BMX (human), P51813 [V600E]
[10] = system: EGFR (human), P00533 [L858R]
[11] = system: EGFR (human), P00533 [G719C]
[12] = system: PIK3CA (human), P42336 [E542K]
[13] = system: PIK3CA (human), P42336 [H1047L]
[14] = system: PIK3CA (human), P42336 [M1043I]
Sequence of PIK3CA (human), P42336 [M1043I] (P42336 whole entry M1043I, looked up): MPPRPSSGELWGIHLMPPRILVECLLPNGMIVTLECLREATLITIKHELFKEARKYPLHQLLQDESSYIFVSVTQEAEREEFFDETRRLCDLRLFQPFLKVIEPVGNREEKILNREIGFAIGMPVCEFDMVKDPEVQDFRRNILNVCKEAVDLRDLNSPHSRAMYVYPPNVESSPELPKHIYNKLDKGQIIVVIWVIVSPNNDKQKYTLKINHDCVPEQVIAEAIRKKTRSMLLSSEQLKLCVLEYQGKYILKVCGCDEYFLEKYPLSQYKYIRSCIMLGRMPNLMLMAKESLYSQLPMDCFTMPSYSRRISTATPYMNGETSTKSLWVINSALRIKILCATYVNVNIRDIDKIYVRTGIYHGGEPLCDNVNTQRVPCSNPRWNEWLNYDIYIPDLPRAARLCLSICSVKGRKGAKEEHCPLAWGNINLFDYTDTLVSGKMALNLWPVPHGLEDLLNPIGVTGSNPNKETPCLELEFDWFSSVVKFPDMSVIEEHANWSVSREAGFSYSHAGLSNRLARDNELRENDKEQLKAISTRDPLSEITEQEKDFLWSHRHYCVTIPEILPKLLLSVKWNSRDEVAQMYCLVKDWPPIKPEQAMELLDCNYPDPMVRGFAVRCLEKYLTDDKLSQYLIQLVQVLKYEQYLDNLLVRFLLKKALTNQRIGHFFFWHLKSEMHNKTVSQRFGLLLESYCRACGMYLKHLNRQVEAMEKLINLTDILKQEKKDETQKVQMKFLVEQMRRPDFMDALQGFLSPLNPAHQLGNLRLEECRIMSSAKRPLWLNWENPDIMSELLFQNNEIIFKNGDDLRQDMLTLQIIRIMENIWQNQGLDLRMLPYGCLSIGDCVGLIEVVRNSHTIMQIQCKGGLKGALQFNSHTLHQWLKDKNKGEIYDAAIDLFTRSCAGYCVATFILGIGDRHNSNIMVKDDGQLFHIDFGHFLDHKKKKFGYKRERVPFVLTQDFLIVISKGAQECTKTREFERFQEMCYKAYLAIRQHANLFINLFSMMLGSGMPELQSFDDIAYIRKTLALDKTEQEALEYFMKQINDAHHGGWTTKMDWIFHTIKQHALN

Sequence of KIT (human), P10721 [A829P] (P10721 whole entry A829P, looked up): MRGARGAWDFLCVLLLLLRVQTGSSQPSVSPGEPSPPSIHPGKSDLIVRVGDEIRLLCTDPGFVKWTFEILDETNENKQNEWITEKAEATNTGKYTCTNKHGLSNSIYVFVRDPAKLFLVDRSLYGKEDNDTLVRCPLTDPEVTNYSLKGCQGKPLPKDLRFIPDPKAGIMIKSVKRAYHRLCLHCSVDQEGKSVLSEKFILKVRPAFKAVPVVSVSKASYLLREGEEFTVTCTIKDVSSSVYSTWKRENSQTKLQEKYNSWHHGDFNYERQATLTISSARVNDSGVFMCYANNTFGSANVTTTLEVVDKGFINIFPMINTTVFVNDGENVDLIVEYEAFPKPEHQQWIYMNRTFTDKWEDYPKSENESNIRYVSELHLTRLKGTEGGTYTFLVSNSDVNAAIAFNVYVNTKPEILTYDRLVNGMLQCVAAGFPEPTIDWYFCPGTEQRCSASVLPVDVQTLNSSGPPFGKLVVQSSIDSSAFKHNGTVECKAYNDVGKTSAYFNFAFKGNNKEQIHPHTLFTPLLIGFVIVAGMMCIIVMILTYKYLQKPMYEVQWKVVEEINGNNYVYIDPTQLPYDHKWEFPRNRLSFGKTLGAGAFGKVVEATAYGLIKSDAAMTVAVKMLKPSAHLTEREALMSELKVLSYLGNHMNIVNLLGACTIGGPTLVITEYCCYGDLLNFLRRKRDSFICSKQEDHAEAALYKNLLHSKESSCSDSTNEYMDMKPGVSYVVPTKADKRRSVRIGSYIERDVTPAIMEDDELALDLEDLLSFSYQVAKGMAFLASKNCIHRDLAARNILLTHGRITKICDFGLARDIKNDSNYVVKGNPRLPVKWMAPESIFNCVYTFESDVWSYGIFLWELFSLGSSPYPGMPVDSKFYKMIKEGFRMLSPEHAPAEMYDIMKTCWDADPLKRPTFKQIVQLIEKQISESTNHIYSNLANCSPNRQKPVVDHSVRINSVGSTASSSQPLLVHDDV
Sequence of PIK3CA (human), P42336 [E542K] (P42336 whole entry E542K, looked up): as the sequence (P42336 whole entry M1043I, looked up) above, with E542K, I1043M counted along it
Sequence of RET (human), P07949 [V804L] (P07949 whole entry V804L, looked up): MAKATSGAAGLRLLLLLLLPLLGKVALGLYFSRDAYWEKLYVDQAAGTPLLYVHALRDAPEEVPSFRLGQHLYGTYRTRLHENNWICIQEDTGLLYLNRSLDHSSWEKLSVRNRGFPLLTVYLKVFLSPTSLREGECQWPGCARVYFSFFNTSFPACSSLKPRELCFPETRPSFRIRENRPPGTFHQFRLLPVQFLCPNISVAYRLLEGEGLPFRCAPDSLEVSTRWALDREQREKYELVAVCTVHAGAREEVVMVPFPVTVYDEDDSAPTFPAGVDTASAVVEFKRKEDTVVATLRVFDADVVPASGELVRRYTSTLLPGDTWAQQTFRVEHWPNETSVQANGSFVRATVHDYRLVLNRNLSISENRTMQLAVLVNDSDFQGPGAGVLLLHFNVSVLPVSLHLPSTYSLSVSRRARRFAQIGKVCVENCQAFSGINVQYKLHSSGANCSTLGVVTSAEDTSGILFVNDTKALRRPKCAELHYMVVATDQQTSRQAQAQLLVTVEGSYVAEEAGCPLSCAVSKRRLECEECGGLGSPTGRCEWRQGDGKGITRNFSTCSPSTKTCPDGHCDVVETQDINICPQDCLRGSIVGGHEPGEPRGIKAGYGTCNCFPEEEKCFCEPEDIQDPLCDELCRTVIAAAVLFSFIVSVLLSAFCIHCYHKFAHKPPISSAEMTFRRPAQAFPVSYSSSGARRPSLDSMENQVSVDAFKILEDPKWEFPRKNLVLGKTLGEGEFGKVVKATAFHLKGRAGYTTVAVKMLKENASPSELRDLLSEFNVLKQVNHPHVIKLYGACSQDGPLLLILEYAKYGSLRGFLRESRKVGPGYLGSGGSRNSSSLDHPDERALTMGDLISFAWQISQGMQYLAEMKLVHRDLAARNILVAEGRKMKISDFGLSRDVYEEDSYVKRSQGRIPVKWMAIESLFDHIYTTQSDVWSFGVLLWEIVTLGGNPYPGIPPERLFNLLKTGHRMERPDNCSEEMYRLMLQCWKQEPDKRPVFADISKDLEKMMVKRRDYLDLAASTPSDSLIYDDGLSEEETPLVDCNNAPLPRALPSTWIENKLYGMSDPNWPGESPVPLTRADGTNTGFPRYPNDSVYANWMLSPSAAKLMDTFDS
Sequence of PIK3CA (human), P42336 [H1047L] (P42336 whole entry H1047L, looked up): as the sequence (P42336 whole entry M1043I, looked up) above, with I1043M, H1047L counted along it
Sequence of FGFR3 (human), P22607 [G697C] (P22607 whole entry G697C, looked up): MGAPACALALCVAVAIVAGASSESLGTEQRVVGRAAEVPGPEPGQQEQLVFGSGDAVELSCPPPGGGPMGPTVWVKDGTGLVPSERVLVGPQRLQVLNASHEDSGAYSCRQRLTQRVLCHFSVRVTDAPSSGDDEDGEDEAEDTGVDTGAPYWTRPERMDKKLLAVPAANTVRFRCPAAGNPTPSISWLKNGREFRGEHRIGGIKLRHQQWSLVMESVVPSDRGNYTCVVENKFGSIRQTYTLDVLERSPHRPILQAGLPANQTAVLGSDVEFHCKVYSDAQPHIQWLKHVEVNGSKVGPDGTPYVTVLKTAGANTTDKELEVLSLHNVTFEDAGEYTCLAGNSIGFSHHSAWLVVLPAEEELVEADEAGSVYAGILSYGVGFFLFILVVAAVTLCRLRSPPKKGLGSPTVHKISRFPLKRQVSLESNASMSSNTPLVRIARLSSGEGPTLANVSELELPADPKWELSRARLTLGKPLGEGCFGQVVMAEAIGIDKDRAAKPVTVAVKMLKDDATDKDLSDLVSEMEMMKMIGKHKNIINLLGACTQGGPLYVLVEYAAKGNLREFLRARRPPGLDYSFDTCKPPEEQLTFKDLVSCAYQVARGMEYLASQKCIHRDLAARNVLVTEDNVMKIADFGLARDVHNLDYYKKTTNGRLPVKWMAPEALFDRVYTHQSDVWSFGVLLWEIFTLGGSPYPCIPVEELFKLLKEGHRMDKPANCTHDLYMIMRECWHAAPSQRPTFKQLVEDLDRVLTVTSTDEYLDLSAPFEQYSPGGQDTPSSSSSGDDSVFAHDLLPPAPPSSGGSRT
Sequence of KIT (human), P10721 [D816H] (P10721 whole entry D816H, looked up): as the sequence (P10721 whole entry A829P, looked up) above, with D816H, P829A counted along it
Sequence of BMX (human), P51813 [V600E] (P51813 whole entry, looked up, stated change not applied): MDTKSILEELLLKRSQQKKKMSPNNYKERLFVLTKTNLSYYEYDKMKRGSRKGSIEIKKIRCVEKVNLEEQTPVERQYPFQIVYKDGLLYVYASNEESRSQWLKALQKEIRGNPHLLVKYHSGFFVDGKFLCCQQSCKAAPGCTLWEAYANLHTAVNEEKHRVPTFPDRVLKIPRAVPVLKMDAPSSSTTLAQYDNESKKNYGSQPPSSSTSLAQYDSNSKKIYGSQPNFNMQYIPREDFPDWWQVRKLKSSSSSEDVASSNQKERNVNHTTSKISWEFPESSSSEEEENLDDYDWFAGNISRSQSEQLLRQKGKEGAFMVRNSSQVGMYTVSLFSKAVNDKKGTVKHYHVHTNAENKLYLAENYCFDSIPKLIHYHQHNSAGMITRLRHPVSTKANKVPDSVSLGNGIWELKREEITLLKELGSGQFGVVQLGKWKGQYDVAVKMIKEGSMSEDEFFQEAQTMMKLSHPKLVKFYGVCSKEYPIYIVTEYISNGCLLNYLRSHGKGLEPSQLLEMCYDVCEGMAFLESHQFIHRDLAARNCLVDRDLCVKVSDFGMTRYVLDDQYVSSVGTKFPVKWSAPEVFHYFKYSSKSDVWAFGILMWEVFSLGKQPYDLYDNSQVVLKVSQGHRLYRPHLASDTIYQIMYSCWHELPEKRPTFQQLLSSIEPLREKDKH

Row | Structure (SMILES) | kinase still bound, per cent of control [1] [%] | kinase still bound, per cent of control [2] [%] | kinase still bound, per cent of control [3] [%] | kinase still bound, per cent of control [4] [%] | kinase still bound, per cent of control [5] [%] | kinase still bound, per cent of control [6] [%] | kinase still bound, per cent of control [7] [%] | kinase still bound, per cent of control [8] [%] | kinase still bound, per cent of control [9] [%] | kinase still bound, per cent of control [10] [%] | kinase still bound, per cent of control [11] [%] | kinase still bound, per cent of control [12] [%] | kinase still bound, per cent of control [13] [%] | kinase still bound, per cent of control [14] [%]
1 | Cc1cc([C@@H](C)Nc2ccccc2C(=O)O)c2nc(N3CCOCC3)cc(=O)n2c1 | 100 | 99 | 88 | 54 | 87 | 100 | 100 | 100 | 92 | 100 | 95 | – | – | –
2 | NC(=O)Nc1cc(-c2cccc(F)c2)sc1C(=O)N[C@@H]1CCCNC1 | 0.65 | 0 | – | 0.1 | 4.7 | 22 | 4.2 | – | 89 | 2.2 | 0.05 | 100 | 100 | 100
3 | O=c1cc(N2CCOCC2)oc2c(-c3cccc4c3sc3ccccc34)cccc12 | 91 | 100 | 100 | 79 | 67 | 94 | 100 | 96 | 95 | 89 | 100 | 27 | 4.4 | 17
4 | COc1cc(C(=O)N2CCC(N3CCN(C)CC3)CC2)ccc1Nc1ncc2c(n1)N(C)c1ccccc1C(=O)N2C | 78 | 89 | 100 | 100 | 96 | 85 | 5 | 100 | 100 | 79 | 100 | 77 | 20 | 65
5 | C[C@@H](Oc1cc(-n2cnc3ccc(CN4CCN(C)CC4)cc32)sc1C(N)=O)c1ccccc1C(F)(F)F | 81 | 100 | 40 | 21 | 93 | 75 | 40 | 29 | 58 | 86 | 100 | 91 | 16 | 63
6 | Cc1ccc(NC(=O)c2cccc(C(C)(C)C#N)c2)cc1Nc1ccc2ncn(C)c(=O)c2c1 | 11 | 31 | 57 | 100 | 64 | 100 | 69 | 100 | 0 | 48 | 49 | 100 | 100 | 89
7 | COc1cc(N2CCN(C)CC2)ccc1Nc1nc(N)c(C(=O)c2c(Cl)cccc2Cl)s1 | 100 | 100 | 86 | 100 | 100 | 100 | 97 | 81 | 100 | 100 | 91 | 100 | 100 | 100
8 | COCC(=O)NC/C=C/c1ccc2ncnc(Nc3ccc(Oc4ccc(C)nc4)c(C)c3)c2c1 | – | 100 | 100 | – | 100 | 90 | 98 | – | 80 | – | – | 100 | 100 | 100

The next lines start with the values.

Row | kinase still bound, per cent of control [1] [%] | kinase still bound, per cent of control [2] [%] | kinase still bound, per cent of control [3] [%] | kinase still bound, per cent of control [4] [%] | kinase still bound, per cent of control [5] [%] | kinase still bound, per cent of control [6] [%] | kinase still bound, per cent of control [7] [%] | kinase still bound, per cent of control [8] [%] | kinase still bound, per cent of control [9] [%] | kinase still bound, per cent of control [10] [%] | kinase still bound, per cent of control [11] [%] | kinase still bound, per cent of control [12] [%] | kinase still bound, per cent of control [13] [%] | kinase still bound, per cent of control [14] [%] | Structure (SMILES)
9 | – | 90 | 85 | 80 | 100 | 83 | 94 | 87 | 93 | – | – | 100 | 70 | 100 | N#Cc1c(NC(=O)c2cccc3ccccc23)sc2c1CCCC2
10 | – | – | – | 100 | – | 3.7 | – | – | 100 | – | – | – | – | – | CCN(CC)CCCCNc1ncc2cc(-c3cc(OC)cc(OC)c3)c(NC(=O)NC(C)(C)C)nc2n1
11 | 28 | 88 | – | 72 | 58 | 12 | 100 | 100 | – | 29 | 77 | – | 79 | – | O=C(O)c1ccc(Nc2ncc3c(n2)-c2ccc(Cl)cc2C(c2c(F)cccc2F)=NC3)cc1
12 | 74 | 90 | 98 | – | 25 | 100 | 70 | 89 | 0.2 | – | 28 | 100 | 95 | – | CCCS(=O)(=O)Nc1ccc(F)c(C(=O)c2c[nH]c3ncc(-c4ccc(Cl)cc4)cc23)c1F
13 | 100 | 100 | 80 | 32 | 100 | 89 | 81 | 64 | 95 | 100 | 71 | – | 0 | – | Nc1ccc(-c2ccc3ncc4ccc(=O)n(-c5cccc(C(F)(F)F)c5)c4c3c2)cn1
14 | – | – | 50 | 11 | – | 27 | 57 | 35 | – | – | – | 100 | 48 | – | C[C@@H](Oc1cc(-c2cnn(C3CCNCC3)c2)cnc1N)c1c(Cl)ccc(F)c1Cl
15 | – | 93 | 91 | 100 | 92 | 88 | 100 | – | 100 | 79 | 86 | 57 | 45 | 42 | O=C(NOC[C@H](O)CO)c1ccc(F)c(F)c1Nc1ccc(I)cc1F
16 | 100 | 100 | 100 | 97 | 100 | 100 | – | – | 60 | – | – | 100 | 100 | 100 | Cc1ccc2nc(NCCN)c3ncc(C)n3c2c1
17 | – | 0.1 | 36 | 3.2 | 83 | 39 | – | 59 | 0.05 | – | – | – | – | – | CNC(=O)c1cc(Oc2ccc(NC(=O)Nc3ccc(Cl)c(C(F)(F)F)c3)cc2)ccn1
